Measured values: publication PMC5253331 (Biochemical and biophysical research communications, 2016)
Values belong to the compound of their own block, whether it stands above or below them.

What was measured:
[1] = tested on: hPD-L1 cells (CHO stably expressing human PD-L1) vs CHO cells; assay: In vitro binding/uptake of [64Cu]WL12 in hPD-L1 and CHO cells; assay type: cell-based, Chinese hamster
[2] = tested on: MDAMB231 and SUM149 cells; assay type: cell-based, human; conditions: MDAMB231 high, SUM149 low PD-L1 expression
[3] = tested on: hPD-L1 and CHO tumors; assay: Ex vivo biodistribution and blocking in NSG mice with hPD-L1 and CHO tumors; set-up: species or system mouse; conditions: co-injected with excess WL12 (50 μg, 2 mg/kg), 2 h
[4] = target: human PD-L1 on CHO cells stably expressing human PD-L1 (human) (UniProt Q9NZQ7); assay: ex vivo biodistribution with blocking dose
[5] = target: recombinant human PD-L1(B7-H1)-His-tag protein (human) (UniProt Q9NZQ7); assay: AlphaScreen or HTRF
[6] = target: human PD-L1 on CHO cells stably expressing human PD-L1 (human) (UniProt Q9NZQ7); assay: radioligand binding
[7] = target: human PD-L1 on CHO cells stably expressing human PD-L1 (human) (UniProt Q9NZQ7); assay: PET imaging and ex vivo biodistribution

Chain of human PD-L1 on CHO cells stably expressing human PD-L1 (human) (Q9NZQ7 19-290): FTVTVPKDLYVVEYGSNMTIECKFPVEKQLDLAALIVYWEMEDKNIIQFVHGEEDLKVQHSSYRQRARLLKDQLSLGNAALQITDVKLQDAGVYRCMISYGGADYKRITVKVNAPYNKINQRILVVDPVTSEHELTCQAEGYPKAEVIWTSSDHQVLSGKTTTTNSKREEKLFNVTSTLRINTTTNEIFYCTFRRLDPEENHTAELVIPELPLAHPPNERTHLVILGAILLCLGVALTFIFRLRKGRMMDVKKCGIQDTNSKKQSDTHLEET
Chain of recombinant human PD-L1(B7-H1)-His-tag protein (human) (Q9NZQ7 19-238): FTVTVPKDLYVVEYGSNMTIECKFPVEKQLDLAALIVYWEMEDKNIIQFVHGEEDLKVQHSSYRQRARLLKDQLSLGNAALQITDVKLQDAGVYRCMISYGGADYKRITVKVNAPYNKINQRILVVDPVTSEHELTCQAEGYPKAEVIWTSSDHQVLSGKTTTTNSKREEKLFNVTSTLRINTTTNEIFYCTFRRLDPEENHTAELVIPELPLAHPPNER

Compound: CCCC[C@H]1C(=O)N(C)[C@@H](CCCC)C(=O)N[C@@H](CCCNC(=O)CCC(C(=O)O)N2CCN(CC(=O)O)CCN(CC(=O)O)CCN(CC(=O)O)CC2)C(=O)N[C@H](C(=O)NCC(N)=O)CSCC(=O)N[C@@H](Cc2ccc(O)cc2)C(=O)N(C)[C@@H](C)C(=O)N[C@@H](CC(N)=O)C(=O)N2CCC[C@H]2C(=O)N[C@@H](Cc2c[nH]cn2)C(=O)N[C@@H](CC(C)C)C(=O)N2C[C@H](O)C[C@H]2C(=O)N[C@@H](Cc2c[nH]c3ccccc23)C(=O)N[C@@H](CO)C(=O)N[C@@H](Cc2cn(C)c3ccccc23)C(=O)N1C (some centres unmarked) [[^64Cu]WL12, metal not drawn]
uptake of the incubated dose in hPD-L1 cells ([1]; hPD-L1 cells incubated with [64Cu]WL12 for 1 h): > 50%
reduction in bound [64Cu]WL12 in the presence of blocking dose of WL12 ([1]; hPD-L1 cells, 1 μM blocking dose of WL12): > 95%
increase in bound radioactivity in hPD-L1 cells compared to negative control CHO cells ([1]; incubation 1 h): 43 fold
uptake of radioactivity in MDAMB231 cells compared to SUM149 cells [2]: Two-fold higher
change in %ID/g in control CHO tumors on blocking [3]: no significant difference
change in kidney uptake on blocking [3]: reduced uptake

percent reduction in %ID/g of [64Cu]WL12 in hPD-L1 tumors with excess WL12 [4]: > 75%
IC50 [5]: 0.022 µM
Compound: WL12 (peptide)

IC50 [5]: 0.0029 µM
Compound: WL12-Cu (peptide)

percent uptake of the incubated dose [6]: > 50%
tumor uptake at 1 h (%ID/g) [7]: 14.9 %ID/g
Compound: [64Cu]WL12 (peptide)
